Assay results published in US11492405B2, “Reducing systemic regulatory t cell levels or activity for treatment of disease and injury of the CNS” (Yeda Research and Development Co. Ltd, priority 2014, dated 2022).
“Also recorded” adds a separate entry of the source.

What was measured:
Type in all cases: in vivo, mouse
5XFAD AD-Tg mice [1] = experiment: Immune cell / mo-Mϕ infiltration of brain in 5XFAD AD-Tg mice (flow cytometry, BM chimeras)
Description: Tissue processing and immunohistochemistry were performed on paraffin embedded sectioned mouse (6 μm thick) and human (10 μm thick) brains. For human ICAM-1 staining, primary mouse anti-ICAM (1:20 Abcam; ab2213) antibody was used. Slides were incubated for 10 min with 3% H2O2, and a secondary biotin-conjugated anti-mouse antibody was used, followed by biotin/avidin amplification with Vectastain ABC kit (Vector Laboratories). Subsequently, 3,3′-diaminobenzidine (DAB substrate) (Zytomed kit) was applied; slides were dehydrated and mounted with xylene-based mounting solution. For tissue stainings, mice were transcardially perfused with PBS prior to tissue excision and fixation. CP tissues were isolated under a dissecting microscope (Stemi DV4; Zeiss) from the lateral, third, and fourth ventricles of the brain. For whole mount CP staining, tissues were fixated with 2.5% paraformaldehyde (PFA) for 1 hour at 4° C., and subsequently transferred to PBS containing 0.05% sodium azide. Prior to staining, the dissected tissues were washed with PBS and blocked (20% horse serum, 0.3% Triton X-100, and PBS) for 1 h at room temperature. Whole mount staining with primary antibodies (in PBS containing 2% horse serum and 0.3% Triton X-100), or secondary antibodies, was performed for 1 h at room temperature. Each step was followed by three washes in PBS. The tissues were applied to slides, mounted with Immu-mount (9990402, from Thermo Scientific), and sealed with cover-slips. For staining of sectioned brains, two different tissue preparation protocols (paraffin embedded or microtomed free-floating sections) were applied, as previously described (Baruch et al, 2013; Kunis et al, 2013). The following primary antibodies were used: mouse anti-Aβ (1:300, Covance, #SIG-39320); rabbit anti-GFP (1:100, MBL, #598); rat anti-CD68 (1:300, eBioscience, #14-0681); rat anti-ICAM-1 (1:200, Abcam, #AB2213); goat anti-GFP (1:100, Abcam, #ab6658); rabbit anti-IBA-1 (1:300, Wako, #019-19741); goat anti-IL-10 (1:20, R&D systems, #AF519); rat anti-Foxp3 (1:20, eBioscience, #13-5773-80); rabbit anti-CD3 (1:500, Dako, #IS503); mouse anti-ZO-1, mouse anti-E-Cahedrin, and rabbit anti-Claudin-1 (all 1:100, Invitrogen, #33-9100, #33-4000, #51-9000); rabbit anti-GFAP (1:200, Dako, #Z0334). […] Microscopic analysis, was performed using a fluorescence microscope (E800; Nikon) or laser-scanning confocal microscope (Carl Zeiss, Inc.). The fluorescence microscope was equipped with a digital camera (DXM 1200F; Nikon), and with either a 20×NA 0.50 or 40×NA 0.75 objective lens (Plan Fluor; Nikon). […] For quantification of staining intensity, total cell and background staining was measured using ImageJ software (NIH), and intensity of specific staining was calculated, as previously described (Burgess et al, 2010). […]

5XFAD AD-Tg mice [2] = experiment: RT-qPCR of choroid plexus (CP) in 5XFAD AD-Tg mice
Description: Total RNA of the hippocampal dentate gyrus (DG) was extracted with TRI Reagent (Molecular Research Center) and purified from the lysates using an RNeasy Kit (Qiagen). Total RNA of the choroid plexus was extracted using an RNA MicroPrep Kit (Zymo Research). mRNA (1 μg) was converted into cDNA using a High Capacity cDNA Reverse Transcription Kit (Applied Biosystems). The expression of specific mRNAs was assayed using fluorescence-based quantitative real-time PCR (RT-qPCR). RT-qPCR reactions were performed using Fast-SYBR PCR Master Mix (Applied Biosystems). Quantification reactions were performed in triplicate for each sample using the standard curve method. Peptidylprolyl isomerase A (ppia) was chosen as a reference (housekeeping) gene. The amplification cycles were 95° C. for 5 s, 60° C. for 20 s, and 72° C. for 15 s. […] For ifn-γ and ppia gene analysis, the cDNA was pre-amplified in 14 PCR cycles with non-random PCR primers, thereby increasing the sensitivity of the subsequent real-time PCR analysis, according to the manufacturer's protocol (PreAmp Master Mix Kit; Applied Biosystems). mRNA expression was determined using TaqMan RT-qPCR, according to the manufacturer's instructions (Applied Biosystems). All RT-qPCR reactions were performed and analyzed using StepOne software V2.2.2 (Applied Biosystems). […]

5XFAD AD-Tg mice [3] = experiment: RT-qPCR of hippocampus / brain parenchyma in 5XFAD AD-Tg mice
Description: Total RNA of the hippocampal dentate gyrus (DG) was extracted with TRI Reagent (Molecular Research Center) and purified from the lysates using an RNeasy Kit (Qiagen). Total RNA of the choroid plexus was extracted using an RNA MicroPrep Kit (Zymo Research). mRNA (1 μg) was converted into cDNA using a High Capacity cDNA Reverse Transcription Kit (Applied Biosystems). The expression of specific mRNAs was assayed using fluorescence-based quantitative real-time PCR (RT-qPCR). RT-qPCR reactions were performed using Fast-SYBR PCR Master Mix (Applied Biosystems). Quantification reactions were performed in triplicate for each sample using the standard curve method. Peptidylprolyl isomerase A (ppia) was chosen as a reference (housekeeping) gene. The amplification cycles were 95° C. for 5 s, 60° C. for 20 s, and 72° C. for 15 s. At the end of the assay, a melting curve was constructed to evaluate the specificity of the reaction. For ifn-γ and ppia gene analysis, the cDNA was pre-amplified in 14 PCR cycles with non-random PCR primers, thereby increasing the sensitivity of the subsequent real-time PCR analysis, according to the manufacturer's protocol (PreAmp Master Mix Kit; Applied Biosystems). mRNA expression was determined using TaqMan RT-qPCR, according to the manufacturer's instructions (Applied Biosystems). All RT-qPCR reactions were performed and analyzed using StepOne software V2.2.2 (Applied Biosystems). The following TaqMan Assays-on-Demand™ probes were used: Mm02342430_g1 (ppia) and Mm01168134_m1 (ifn-γ).
For all other genes examined, the following primers were used: […]

[4] = AD-Tg/Foxp3-DTR+ mice, 3 weeks after last DTx injection
[5] = weekly-GA vs untreated AD-Tg mice, age 6 m

Diphtheria toxin [DTx]
Foxp3+ Tregs among CD4+ T cells accumulated within the brain (5XFAD AD-Tg mice [1]; [4]): marked enrichment
numbers of CD45high/CD11bhigh mo-Mϕ and CD4+ T cells in brain parenchyma (5XFAD AD-Tg mice [1]; [4]): increased numbers; also recorded: elevated numbers
CP mRNA expression of leukocyte trafficking molecules (icam1, cxcl10, ccl2) (5XFAD AD-Tg mice [2]; AD-Tg/DTR+ vs DTx-treated AD-Tg/DTR− littermates, 1 day after last DTx injection): elevated mRNA expression
foxp3 and il10 mRNA expression in hippocampus (5XFAD AD-Tg mice [3]; [4]): increased expression
mRNA expression of pro-inflammatory cytokines il-12p40 and tnf-α in brain parenchyma (5XFAD AD-Tg mice [3]; [4]): reduced mRNA expression levels

Glatiramer acetate [GA]
numbers of CD11bhighCD45high-expressing cells in hippocampus (5XFAD AD-Tg mice [1]; 2nd week of weekly-GA regimen, non-chimeric AD-Tg mice): increased numbers
homing of GFP+ mo-Mϕ to the CP and adjacent ventricular spaces (5XFAD AD-Tg mice [1]; weekly-GA vs vehicle, AD-Tg/CX3CR1GFP/+ BM chimeras): increased homing
CP epithelial expression of leukocyte trafficking molecules (icam1, cxcl10, ccl2) (5XFAD AD-Tg mice [2]; weekly-GA, end of 1st or 4th week): upregulated
neuroinflammation (hippocampal mRNA) (5XFAD AD-Tg mice [3]; weekly-GA 100 μg s.c. over 4 weeks, 5XFAD AD-Tg mice): reduced neuroinflammation
hippocampal mRNA expression of anti-inflammatory cytokines IL-10 and TGF-β (5XFAD AD-Tg mice [3]; [5]): elevation
hippocampal mRNA expression of neurotropic factors IGF-1 and BDNF (5XFAD AD-Tg mice [3]; [5]): elevation
hippocampal mRNA expression of pro-inflammatory cytokines TNF-α, IL-1β and IL-12p40 (5XFAD AD-Tg mice [3]; [5]): reduced expression
